The text below walks through data of patent US20240335438A1, “TARGETING DOT1L AND SMARCA4/2 FOR THE TREATMENT OF MLLR LEUKEMIA” (DANA-FARBER CANCER INSTITUTE, INC., priority 2021, published 2024).

Entries after “also recorded” stand apart in the source; their conditions may differ.

Data set [1] addresses T1, SMARCA2 (Homo sapiens, UniProt P51531). Kind of data set: DSF assay (Protein Thermal Shift Dye Kit), SMARCA2 binding. The settings on record: 30 min incubation, indicated ratios, FIG. 1A. As for the experimental part: (§1) Recombinant SMARCA4 and SMARCA2 proteins were incubated with S31 at indicated ratios. After 30 min of incubation, DSF assay was performed using Protein Thermal Shift™ Dye Kit (ThermoFisher™) according to manufacture instructions (FIG. 1A).
In general terms: In DSF a fluorescence change marks the thermal transition of the protein.

The test system of another data set is MLL-AF9 targets. The experiment in a line: RNA sequencing of MLL-AF9 targets (heatmap, GSEA) in MOLM13 cells. The format is cell-based. The settings on record: EPZ5676 1.25 μM 4 days, S31 1 μM 6-10 hr, FIG. 11A. On the procedure:
MOLM13 cells were primed with 1.25 μM of EPZ5676 or DMSO for 4 days. At day 5, additional S31 (1 μM) or DMSO was added for another 6-10 hr. Cells were harvested and subjected to RNA isolation. Isolated RNA was sent to Novogene (USA) for RNA sequencing. Expression values of MLL-AF9 targets from each treatment group were plotted in heatmap (Morpheus) (FIG. 11A). GSEA analysis was performed by GSEA software 4.1.0 (Broad Institute) (FIG. 11B).
The molecular interdependency between DOT1L inhibition and SMARCA4/2 inactivation was explored using RNA-seq in MOLM13 cells treated with DMSO. S31. EPZ5676 and S31+EPZ5676. Persistent expression of MLL fusion targets maintained the leukemic transformation as a stem cell-like state. […] To define a detailed regulatory pattern of the effects of SMARCA4/2 and DOT1L on these genes, the RNA-seq results were plotted in a heatmap and identified one subset of genes are of particular interest. […] However, the combination of the two induced significant reduction of genes such as MYB and FLT3, which are critical for MLLr leukemia proliferation. S31 sensitized such MLL-AF9) targets to EPZ5676. This was confirmed via Q-PCR.

The next data set has as its system cleaved PARP. The experiment in a line: Cleaved PARP expression (apoptosis). The format is cell-based. The settings on record: after 6 hours of treatment. On the procedure:
(§2) MOLM13 WT and CRBN KO cells were treated with 1 μM of S31 at indicated time points. Cell lysates were harvested, and proteins were extracted using RIPA buffer.
Chemical inhibition of targeted proteins offered the opportunity to understand the function and therapeutic potential of the targets with temporal control. There are several small molecule inhibitors that have been reported to target SMARCA2/4. […] Therefore, PROTACs, bridging small molecules that recruit the target protein into proximity with the E3 ligase system to initiate proteasomal degradation of targeted proteins inside the cells, were developed to target SMARCA2/4. The strategy has recently been described and utilized for the depletion of multiple targets including BRD4, FKBP12, ERR, RIPK2 and BRD9. Compound (1) (S31) is a molecule that contains phthalimide (thalidomide, lenalidomide and pomalidomide, also known as IMiDs®), a CRBN binder, and a SMARCA4/2 binder that are linked via an alkyl linker. The PROTAC dimerized targeted proteins and CRBN, and induced polyubiquitylation followed by proteasomal degradation of SMARCA4/2.

The target of a further data set is His-CRBN (Homo sapiens, UniProt Q96SW2). The experiment in a line: CRBN binding, biotin-pomalidomide probe with streptavidin donor and nickel chelate acceptor beads. To be noted: 50 nM His-CRBN, 1 hr, FIG. 1B. On the procedure: 50 nM of His-CRBN was incubated with biotinylated probe (biotin-pomalidomide), streptavidin donor beads (PerkinElmer®), nickel chelate acceptor beads (PerkinElmer®) and compounds (S31, PFI3 or pomalidomide at indicated concentrations) for 1 hr. After incubation, […] was read according to manufacture instructions (FIG. 1B).

In data set [2] the target is T1, SMARCA2. Kind of data set: SMARCA2 degradation by Western Blotting in MOLM13 cells. The format is cell-based. The arrangement: endogenous in cells; host or cells: MOLM13 WT and CRBN KO cells. The settings on record: MOLM13 WT and CRBN KO cells, 1 μM, indicated time points, FIG. 2. On the procedure:
as §2

The test system of data set [3] is panel of leukemia cell lines. The experiment in a line: Growth inhibition in a panel of leukemia cell lines (ATPlite). The format is cell-based. The settings on record: 72 hr, FIG. 3. As for the experimental part: S31 was treated in a panel of leukemia cell lines with 10 doses ranging from 10 μM to 1 nM. After 72 hr of treatment, growth inhibition was determined by ATPlite™ (PerkinElmer®). IC50 was calculated by GraphPad Prism® 7 (FIG. 3).
A general note: ATP-based viability assays read luminescence as a measure of living cells.

Data set [4] concerns the target T2, SMARCA4 (Homo sapiens, UniProt P51532). The experiment in a line: DSF assay (Protein Thermal Shift Dye Kit), SMARCA4 binding. The settings on record: 30 min incubation, indicated ratios, FIG. 1A. On the procedure:
as §1

Data set [5] deals with T2, SMARCA4. The experiment in a line: SMARCA4 degradation by Western Blotting in MOLM13 cells. On the set-up: endogenous in cells; host or cells: MOLM13 WT and CRBN KO cells. The format is cell-based. To be noted: MOLM13 WT and CRBN KO cells, 1 μM, indicated time points, FIG. 2. As for the experimental part: as §2
Data set [6] deals with MLLr acute myeloid leukemia (AML). The settings on record: cited from earlier work.
Another data set deals with MLL rearranged cells. To be noted: cited from earlier work.

T2 sequence (P51532 whole entry): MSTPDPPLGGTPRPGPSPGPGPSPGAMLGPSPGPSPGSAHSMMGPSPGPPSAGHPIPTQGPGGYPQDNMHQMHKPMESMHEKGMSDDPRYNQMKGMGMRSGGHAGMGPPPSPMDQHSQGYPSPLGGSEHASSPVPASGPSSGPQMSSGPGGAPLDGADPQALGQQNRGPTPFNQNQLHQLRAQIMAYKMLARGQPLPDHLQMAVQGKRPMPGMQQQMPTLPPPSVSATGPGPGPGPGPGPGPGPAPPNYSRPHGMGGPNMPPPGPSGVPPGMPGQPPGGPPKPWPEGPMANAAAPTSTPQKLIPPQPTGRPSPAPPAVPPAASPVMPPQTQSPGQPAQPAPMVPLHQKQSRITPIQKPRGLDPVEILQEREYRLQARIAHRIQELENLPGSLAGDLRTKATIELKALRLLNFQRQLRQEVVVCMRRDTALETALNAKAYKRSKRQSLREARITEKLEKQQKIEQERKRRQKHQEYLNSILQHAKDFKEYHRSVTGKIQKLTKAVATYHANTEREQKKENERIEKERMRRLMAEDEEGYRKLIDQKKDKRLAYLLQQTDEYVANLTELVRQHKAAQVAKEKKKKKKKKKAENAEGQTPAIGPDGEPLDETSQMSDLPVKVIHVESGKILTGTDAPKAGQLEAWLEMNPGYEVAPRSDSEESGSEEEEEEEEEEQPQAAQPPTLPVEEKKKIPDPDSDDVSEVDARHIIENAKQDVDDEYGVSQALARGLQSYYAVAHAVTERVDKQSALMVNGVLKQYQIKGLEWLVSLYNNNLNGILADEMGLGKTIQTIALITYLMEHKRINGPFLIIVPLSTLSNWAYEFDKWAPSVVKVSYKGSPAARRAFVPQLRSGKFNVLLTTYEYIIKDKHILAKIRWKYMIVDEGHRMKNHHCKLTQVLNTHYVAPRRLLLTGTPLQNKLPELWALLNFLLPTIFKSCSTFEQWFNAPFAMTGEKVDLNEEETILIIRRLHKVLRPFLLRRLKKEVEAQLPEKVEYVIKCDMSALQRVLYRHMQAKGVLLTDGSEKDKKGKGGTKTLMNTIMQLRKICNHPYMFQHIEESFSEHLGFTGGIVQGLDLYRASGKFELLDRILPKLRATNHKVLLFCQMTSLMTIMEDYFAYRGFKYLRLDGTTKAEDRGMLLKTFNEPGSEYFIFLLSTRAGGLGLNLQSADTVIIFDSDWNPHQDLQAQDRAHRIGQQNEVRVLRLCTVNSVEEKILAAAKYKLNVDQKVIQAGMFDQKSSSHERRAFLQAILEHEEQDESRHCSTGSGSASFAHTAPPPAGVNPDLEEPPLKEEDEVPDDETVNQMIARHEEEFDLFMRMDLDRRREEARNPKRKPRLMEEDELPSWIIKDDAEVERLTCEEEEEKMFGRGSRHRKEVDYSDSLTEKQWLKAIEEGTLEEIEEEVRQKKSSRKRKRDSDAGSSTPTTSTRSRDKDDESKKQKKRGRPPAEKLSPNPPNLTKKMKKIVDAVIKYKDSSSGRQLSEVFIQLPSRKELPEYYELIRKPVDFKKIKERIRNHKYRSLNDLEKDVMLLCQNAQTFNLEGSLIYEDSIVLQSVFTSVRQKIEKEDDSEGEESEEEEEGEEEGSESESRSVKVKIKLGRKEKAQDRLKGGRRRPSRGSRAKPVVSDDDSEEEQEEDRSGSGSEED
T1 sequence (P51531 whole entry): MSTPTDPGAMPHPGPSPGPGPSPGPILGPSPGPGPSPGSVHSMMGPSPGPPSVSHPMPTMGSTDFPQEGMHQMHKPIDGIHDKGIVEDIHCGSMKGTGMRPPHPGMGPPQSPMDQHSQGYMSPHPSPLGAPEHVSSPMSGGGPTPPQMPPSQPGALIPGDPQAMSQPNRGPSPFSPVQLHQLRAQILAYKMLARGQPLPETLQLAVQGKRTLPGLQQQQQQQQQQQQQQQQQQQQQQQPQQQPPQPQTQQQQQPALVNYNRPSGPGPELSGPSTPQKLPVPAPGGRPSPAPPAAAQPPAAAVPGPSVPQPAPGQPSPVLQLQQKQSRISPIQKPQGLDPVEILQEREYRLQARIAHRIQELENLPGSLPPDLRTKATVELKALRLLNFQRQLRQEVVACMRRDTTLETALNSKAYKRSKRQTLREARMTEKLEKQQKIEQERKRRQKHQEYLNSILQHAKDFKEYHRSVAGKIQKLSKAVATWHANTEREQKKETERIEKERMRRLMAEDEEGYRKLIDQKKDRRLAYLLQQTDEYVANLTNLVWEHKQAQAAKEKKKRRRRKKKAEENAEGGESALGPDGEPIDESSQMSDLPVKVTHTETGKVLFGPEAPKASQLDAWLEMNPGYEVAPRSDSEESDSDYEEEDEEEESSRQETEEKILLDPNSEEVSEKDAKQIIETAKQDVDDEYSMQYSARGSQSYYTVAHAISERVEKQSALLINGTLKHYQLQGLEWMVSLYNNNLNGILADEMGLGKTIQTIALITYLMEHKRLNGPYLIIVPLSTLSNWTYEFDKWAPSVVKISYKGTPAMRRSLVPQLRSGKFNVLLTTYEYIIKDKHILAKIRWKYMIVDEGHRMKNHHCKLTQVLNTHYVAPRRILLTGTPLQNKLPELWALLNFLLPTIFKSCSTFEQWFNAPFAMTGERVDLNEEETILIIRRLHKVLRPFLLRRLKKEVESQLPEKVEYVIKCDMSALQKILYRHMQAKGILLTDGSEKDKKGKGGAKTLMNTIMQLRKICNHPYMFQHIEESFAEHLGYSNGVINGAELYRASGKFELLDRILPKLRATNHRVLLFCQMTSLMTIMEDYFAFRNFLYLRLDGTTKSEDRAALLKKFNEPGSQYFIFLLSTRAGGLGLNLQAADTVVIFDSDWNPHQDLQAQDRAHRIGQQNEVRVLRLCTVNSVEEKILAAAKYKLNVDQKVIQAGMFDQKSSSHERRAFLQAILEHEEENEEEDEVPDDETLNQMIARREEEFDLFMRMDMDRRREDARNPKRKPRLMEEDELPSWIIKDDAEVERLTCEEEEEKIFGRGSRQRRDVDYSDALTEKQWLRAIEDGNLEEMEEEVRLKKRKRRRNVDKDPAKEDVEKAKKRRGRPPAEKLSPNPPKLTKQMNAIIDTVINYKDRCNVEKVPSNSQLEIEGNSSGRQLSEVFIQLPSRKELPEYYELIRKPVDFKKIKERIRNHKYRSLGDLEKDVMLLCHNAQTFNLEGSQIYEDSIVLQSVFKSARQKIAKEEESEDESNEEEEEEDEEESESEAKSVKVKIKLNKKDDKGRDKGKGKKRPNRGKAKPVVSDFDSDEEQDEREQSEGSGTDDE
Sequence of His-CRBN (Q96SW2 whole entry): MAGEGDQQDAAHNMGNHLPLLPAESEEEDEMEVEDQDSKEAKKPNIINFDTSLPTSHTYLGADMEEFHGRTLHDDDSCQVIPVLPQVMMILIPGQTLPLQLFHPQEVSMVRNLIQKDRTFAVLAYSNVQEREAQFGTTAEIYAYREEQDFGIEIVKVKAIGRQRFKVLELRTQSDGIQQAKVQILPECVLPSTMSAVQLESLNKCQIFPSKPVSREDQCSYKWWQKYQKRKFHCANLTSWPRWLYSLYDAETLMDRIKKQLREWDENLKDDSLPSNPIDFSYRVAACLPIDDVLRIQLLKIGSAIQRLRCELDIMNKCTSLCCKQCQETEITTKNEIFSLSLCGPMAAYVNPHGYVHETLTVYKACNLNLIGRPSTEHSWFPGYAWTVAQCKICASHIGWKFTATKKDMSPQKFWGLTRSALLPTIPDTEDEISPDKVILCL

Consider `O=C1CCC(N2C(=O)c3ccc(NCCCCCCCCOCCc4cccc(N5C[C@H]6C[C@@H]5CN6/C=C/C(=O)c5ccccc5O)c4)cc3C2=O)C(=O)N1` (stereo partly drawn) [S31, 2-(2,6-dioxopiperidin-3-yl)-5-((8-(3-((1R,4R)-5-((E)-3-(2-hydroxyphenyl)-3-oxoprop-1-en-1-yl)-2,5-diazabicyclo[2.2.1]heptan-2-yl)phenethoxy)octyl)amino)isoindoline-1,3-dione], for which the “binding to SMARCA2” value at SMARCA2 [1] is recorded as “binds”. Besides, the “expression of MLL-AF9 target genes (subset such as MYB and FLT3), RNA-seq heatmap” value in the data set with MLL-AF9 targets is recorded as “could not—or just slightly—affect the gene expression; also recorded: sensitizes MLL-AF9 targets to EPZ5676”. Also, the “cleaved PARP expression, indicating apoptosis” value with cleaved PARP is on record as “cleaved PARP expression abundance was observed”. The “binding to CRBN” value on His-CRBN is “binds”. For the same compound, the SMARCA2 degradation entry at SMARCA2 [2] is “degraded; also recorded: degradation was observed”. Also, the “IC50 of cell growth” value in [3] (10 doses from 10 μM to 1 nM) is “low nanomolar range”. For the same compound, the “cell growth inhibition / cytotoxicity” value in data set [3] is “profound inhibition; also recorded: induces cytotoxicity”. For the same compound, the “binding to SMARCA4” value on SMARCA4 [4] is “binds”. For the same compound, at SMARCA4 [5], the SMARCA4 degradation entry is given as “degraded; also recorded: degradation was observed”.

As for `CC(C)N(C[C@H]1OC(n2cnc3c(N)ncnc32)[C@H](O)[C@@H]1O)C1CC(CCc2nc3cc(C(C)(C)C)ccc3[nH]2)C1` (stereo partly drawn) [EPZ5676, (2R,3R,4S,5R)-2-(6-amino-9H-purin-9-yl)-5-((((1s,3R)-3-(2-(5-(tert-butyl)-1H-benzo[d]imidazol-2-yl)ethyl)cyclobutyl)(isopropyl)amino)methyl)tetrahydrofuran-3,4-diol], in the data set with MLL-AF9 targets, the “expression of MLL-AF9 target genes (subset such as MYB and FLT3), RNA-seq heatmap” value is on record as “could not—or just slightly—affect the gene expression”. In addition, the clinical response result in [6] (monotherapy) is “low effective responses and subsequent relapses”. Also, the side effect profile result in data set [6] (treatment of MLLr AML) was “promising side effect profile”. Besides, in the data set on MLL rearranged cells, the anti-proliferative effects result is “remarkably selective anti-proliferative effects”.
